Results published in patent US20130259829A1, “CLIP INHIBITORS AND METHODS OF MODULATING IMMUNE FUNCTION” (The Regents of the University of Colorado, A Body Corporate, priority 2008, published 2013).
No end group written: not given here. *: point of attachment. Biotin = O=C1N[C@H]2[C@H](CS[C@H]2CCCCC(=O)*)N1

Key:
[1] = system: human B cells from peripheral blood mononuclear cells (PBMC); assay: Human PBMC culture with toll ligands with or without peptides, CLIP on B cells; format: cell-based; conditions: for level of CLIP per B cell / percentage of CLIP+ B cells: PBMC of two donors cultured with R848 for 48 hours
Description: PBMC were prepared from a total of seven adult normal donors, five for examining the effects of TLR binding on the percentage of ectopic CLIP^+ B cells and changes in mean fluorescence intensity of the CLIP staining resulting from TLR stimulation with CpG-ODN, LPS, Pam-3-Cys, and Poly I:C. For these experiments, the cells were cultured at approximately 1×10^6 per ml with each TLR binding ligand added at 5 μg per ml. The other two donors were tissue typed for HLA phenotypes, were cultured with the TLR7/8 agonist CL097 for 48 hours with and without the computationally predicted competitive peptide or the scrambled analogue for 48 hours. For both experiments at the end of the appropriate culture period, cells were harvested and stained for cell surface CLIP using anti-human CLIP-FITC versus MHC class II HLA-DR-PE Cy5, or anti-human CLIP-FITC versus anti-human CD19-PE. Cells were analyzed using either a BD FacsCalibur, for the five samples, or a Coulter FC500 for the two tissue typed samples.
(§1) Multi-parameter flow cytometric analysis for the fluorescent detection of ectopic CLIP, mouse B220, human CD19 or CD20, human CLIP, human HLA-DR, and human CLIP or apoptosis were performed using a Beckman Coulter Excel or a Beckman Coulter FC500 flow cytometer (Beckman Coulter, Hialeah, Fla.). Mouse splenic cells were cultured in complete RPMI for the times indicated. Resting, primed, or activated B cells were cultured in the presence of T cells (vide supra). At the end of 16 h of culture, the cells were harvested and washed. Ethidium bromide (detected by red fluorescence) was added immediately before analysis of each tube. The cells were analyzed by first gating using forward vs. side scatter then using increased fluorescence as a measure of detection of the indicated cell surface antigens.
Because CLIP affinity for MHC class II molecules is allele dependent, the MHCPred (http://www.jenner.ac.uk/MHCPred/) and NetMHC (http://www.cbs.dtu.dk/services/NetMHC/) databases was used to determine binding affinities between CLIP for molecules encoded by either mouse or human MHC alleles. […] For human studies, PBMC were collected from donors, most of whose MHC tissue types (alleles for HLA-DR, DP, DQ, HLA-A, and HLA-B) were identified. The cells were cultured in the presence or absence of the TLR7/8-binding compound R848 (CLO97, Invivogen) for 48 hours. The cells were cultured in the presence or absence of VGV-hB peptide versus a control peptide of equal length (referred to henceforth as VGV-pB, whose binding depends upon the MHC allele/polymorphism of the individual) (FIGS. 13d and 13e). […] Considering polymorphic differences in MHC alleles between the two individuals, the ability of a given peptide to replace CLIP may vary as a function of the polymorphism between the two people. Data are representative of five different experiments performed over several months.

[2] = background statement; cited from earlier work
mouse splenic B cells = assay: TLR activation of mouse splenocytes in vitro, ectopic CLIP on B cells (15G4-FITC versus B220); format: cell-based; conditions: for exogenous CLIP expression on activated mouse B cells: treatment in vitro with toll ligand
Description: Mouse splenocytes or T-depleted splenocytes were red cell depleted using Geys Solution, and cells were counted. For T-depleted B cell preparations, B cells were separated by discontinuous Percoll (Pharmacia LKB Biotechnology, Piscataway, N.J.) gradients (13). Those cells layering at the 1.079/1.085 g/ml interface (1.079<ρ≦1.085) are designated throughout as resting B cells. Cells layering at the BSS/1.066 g/ml interface (ρ≦1.066) are designated as activated. Viable cells from this latter interface were isolated using Lympholyte-M (Cedarlane Laboratories, Ltd., Hornby, Ontario, Canada). Cells from each layer were harvested, washed, and resuspended at 10^7 cells/ml in PBS containing 5% fetal calf serum.
Total splenocytes, from either B6.129, Ii-deficient, or H2M-deficient mice were cultured with LPS for 24, 48, 72, or 96 hours as indicated. Cells were harvested and stained by two-color fluorescence using 15G4-FITC anti-mouse CLIP/I-A^6 versus anti-mouse B220 PE.
Freshly isolated splenocytes, single cell suspensions of lymph node cells, resting (or activated) B cells, or primed B cells were isolated from B6.129, Ii-deficient, or H2M-deficient mice and cultured in 24 well plates in complete RPMI medium, with or without the appropriate Toll ligand, at 10^6 cells/ml. Cells were cultured for 24, 48, 72, 96, or up to 144 hours. Cells were harvested and stained by flow cytometric analysis using either a Beckman Coulter Excel or a Beckman Coulter FC500 flow cytometer. Cells were stained by two-color fluorescence using 15G4-FITC anti-mouse CLIP/I-A^b versus anti-mouse B220 PE. For co-culture experiments (5×10^5) were combined with T cells (5×10^4) in 24 well plates in complete medium, with or without the appropriate antigen. Experiments with 3A9, 2A11 or A6.A2 employed 3 mg/ml tryptic digest of HEL as a source of pre-processed antigen, i.e., peptide. Cultures were incubated overnight at 37° C. in a humidified 5% CO2, 95% air incubator.
as §1

[3] = system: human B cell lines, Raji and Daudi; assay: Synthetic peptide binding and competition with CLIP on B cell lines (anti-human CLIP Fitc versus Streptavidin); format: cell-based; conditions: for cell surface bound CLIP (Fitc-Anti-CLIP): biotinylated competing peptide, 50 microMolar
Description: Based on a computational model comparing the peptide content of TNP mixture and identifying those peptides that would have the likeliest ability to compete for the peptide/antigen binding site for MHC class II (human HLA-DR, DP, and DQ), several peptide candidates were synthesized and examined for activity. The purpose of the study was to determine if synthetic peptides can compete for binding with CLIP peptides as measured with either Fitc anti-human CLIP antibody or, comparatively in the case of biotinylated peptides, with Streptavidin.
Cell Culture Conditions: The Raji and Daudi cell lines were purchased from American Type Culture Collection, were thawed, and grown in RPMI 1640 medium supplemented with standard supplements, including 10% fetal calf serum, gentamycin, penicillin, streptomycin, sodium pyruvate, HEPES buffer, 1-glutamine, and 2-ME.
Protocol: Cells were plated into a 12 well plate with 3 mls total volume containing approximately 1.5×10^6/well for Daudi cells and 3.0×10^6/well for Raji cells. Treatment groups included no treatment as control; MKN 3 and MKN 5 at 50 microMolar final concentration based on the reported molarity of the synthesized compounds.
The cells were incubated at 37° C. in an atmosphere containing 5% CO2 and approximately 92% humidity. The cells were incubated for 4 and 24 hours. At each time point, the cells from that experimental time were harvested and stained for flow cytometric analysis of cell surface expression of CLIP (MHC Class II invariant peptide, human) by using the commercially available (Becton/Dickinson/PHarmingen) anti-human CLIP Fitc. Catalogue #555981 versus Streptavidin.
Harvested cells were stained using standard staining procedure that called for a 1:100 dilution of Fitc-anti-human CLIP or isotype control versus 1:200 dilution of the commercially prepared Streptavidin. Following staining on ice for 25 minutes, cells were washed with PBS/FCS and resuspended in 100 microliters and added to staining tubes containing 400 microliters of PBS. Samples were acquired and analyzed on a Coulter Excel Flow Cytometer.
In the Histogram analyses of FIGS. 5-7 the Y axis represents cell number of the 5000 live cells versus the X axis which is a reflection of relative Fitc fluorescence versus Streptavidin-PE (eBioscience, Cat. #12-4317) that will bind with high affinity to cell-bound biotinylated peptides. The distance between the histogram from the isotype control staining versus the histogram reflecting the specific stain and is a measure of level of cell surface CLIP or the biotinylated peptide when stained with Streptavidin on a population of live Raji or Daudi cells as indicated.

B cell surface CLIP = B cell surface CLIP after 2-Deoxyglucose and dichloroacetate (FIG. 4); format: cell-based
B6.129 (H-2b) mice [4] = assay: CpG-ODN injected B6.129 mice with or without peptide (TLR-induced chronic hyperimmune activation); format: in vivo, mouse; conditions: CpG-ODN alone or with peptide, 48 hours
B6.129 (H-2b) mice [5] = assay: as above; format: in vivo, mouse
Description: C57Bl6 and B6.129 mice were injected with CpG-oligo-deoxynucleotide (CpG-ODN (25 μg per mouse)). After 24, 72, or 96 hours, animals were humanely killed; spleens and lymph nodes were removed. The spleens and lymph nodes were passed through nylon mesh to recover single cell suspensions, and the cells were counted. Cells were stained as indicated and analyzed flow cytometrically using a Beckman Coulter Excel or Coulter FC500 flow cytometer.
as §1
Cell death was measured either by flow cytometric detection of forward versus side scatter or by DNA fragmentation. DNA fragmentation was quantified by terminal deoxynucleotidyl transferase (TdT; Promega, Madison, Wis.)-mediated fluorescein-12-deoxyuridine triphosphate (FITC-dUTP; Boehinger Mannheim Corporation, Indianapolis, Ind.) addition to the terminal 3′-OH ends of fragmented DNA (TUNEL assay) as previously described (18). Resting B cells (1×10^6) were combined with 1×10^5 T hybridoma cells, with or without antigen, and cultured for 16-17 h. The cultures were harvested and washed twice in PBS-2% FBS at 4° C. Subsequently, cells were incubated for 30 min at 4° C. in PBS-2% FBS […] Cells were washed in PBS and fixed in 1.5% paraformaldehyde in PBS (pH 7.4) for 1 h at 4° C. Cells were thoroughly washed in PBS and were resuspended in 50 μl of a reaction mixture containing the following: 5 units TdT, 0.1-0.2 nM FITC-dUTP and 1 nM each dATP, dCTP, and dGTP in 100 mM cacodylate buffer (pH 6.8) with 1 mM CoCl2 and 0.1 mg/ml BSA. Reactions were incubated for 1 h at 37° C. and stopped by washing with 0.25 M EDTA in Tris buffer (pH 7.4). Cells were then analyzed for two color fluorescence on the FC500.
Using mouse models for quantitative analysis of TLR-induced CHA, B6.129 (H-2^b) mice were injected with CpG-ODN alone or CpG-ODN in combination with VGV-hB. […] Because the binding constant of a peptide is also function of concentration, B6.129 mice were injected with peptide; either VGV-hB or VGV-sB, ranging in dose from 0.25, 2.5, 25, and 50 micrograms of peptide per mouse, (FIGS. 14c and 14d).

[6] = peptide in combination with TLR 9 stimulation (CpG-ODN)

In the case of ANSGIIGDITEEVGGQY [VGV-pB], the “level of CLIP per B cell” value [1] is reported as “reduced the frequency of CLIP^+ B cells and the level of CLIP per cell in one individual but not the other” and the “percentage of CLIP+ B cells” value [1] is reported as “reduced the frequency of CLIP^+ B cells and the level of CLIP per cell in one individual but not the other”.
For C=CC[C@@H]1/C=C(\C)C[C@H](C)C[C@H](OC)[C@H]2O[C@@](O)(C(=O)C(=O)N3CCCC[C@H]3C(=O)O[C@H](/C(C)=C/[C@@H]3CC[C@@H](O)[C@H](OC)C3)[C@H](C)[C@@H](O)CC1=O)[C@H](C)C[C@@H]2OC [FK506, tacrolimus], the “immunosuppressive activity relative to cyclosporin” value [2] is listed as 10-100 times.
In the case of “polyinosinic:polycytidylic acid [Poly I:C]”, the “exogenous CLIP expression on activated mouse B cells” value (shortened to “exogenous CLIP expression”) (mouse splenic B cells) is reported as “resulted in exogenous CLIP expression”.
In the case of “(S)-(2,3-bis(palmitoyloxy)-(2RS)-propyl)-N-palmitoyl-(R)-Cys-(S)-Ser(S)-Lys4-OH, trihydrochloride [Pam3Cys]”, the “exogenous CLIP expression” value (mouse splenic B cells) is reported as “resulted in exogenous CLIP expression”.
For FRIMAVLASSGGGANSGFRIMAVLASGGQY [MKN.3], the “cell surface bound CLIP (Fitc-Anti-CLIP)” value ([3]; 4 hours) was “small decreases” and the “cell surface bound CLIP (Fitc-Anti-CLIP)” value ([3]; 24 hours) was “significant decreases”.
With “SGGGKALVQNDTLLQVKG (not fully specified (N-terminus); also: biotinylated, position not given here) [MKN.5]” the “cell surface bound CLIP (Fitc-Anti-CLIP)” value ([3]; 4 hours) was “small decreases” and the “cell surface bound CLIP (Fitc-Anti-CLIP)” value ([3]; 24 hours) was “significant decreases”.
With lipopolysaccharide [LPS] the “ectopic CLIP on human B cells” value ([1]; PBMC from five healthy donors, toll ligand 5 ug per ml, 24 hours) was “Statistically significant increases”, the “exogenous CLIP associated with MHC class II on splenic B cells” value (mouse splenic B cells; in vitro stimulation of resting mouse splenocytes, 0 to 72 hours) was “time-dependent increase” and the “exogenous CLIP expression” value (mouse splenic B cells) was “resulted in exogenous CLIP expression”.
For CCOCc1nc2c(N)nc3ccccc3c2n1CC(C)(C)O [R848, imidazoquinoline resiquimod], the “exogenous CLIP expression” value (mouse splenic B cells) was “resulted in exogenous CLIP expression”.
For O=CC[C@@H](O)[C@H](O)[C@H](O)CO [2-Deoxyglucose], the “B cell surface CLIP” value (B cell surface CLIP) was “affects B cell surface CLIP”.
With “SGGGSKMRMATPLLMQALY (Biotin-SGGGSKMRMATPLLMQALY) [MKN.1]” the “cell surface CLIP and CD74 levels” value ([3]; Raji or Daudi cells) was “alters cell surface CLIP and CD74 levels”.
For FRIMAVLAS [VGV-hB], the “level of CLIP per B cell” value [1] was “reduced the percentage of CLIP^+ B cells and the level of CLIP per B cell to pre-treatment levels”, the “percentage of CLIP+ B cells” value [1] was “reduced the percentage of CLIP^+ B cells and the level of CLIP per B cell to pre-treatment levels” and the “splenic B lymphocytes and splenic CLIP+ B cells” value (B6.129 (H-2b) mice [4]) was “reversed the effects of CPG alone”. The “reversal of CpG-ODN activation incl. percent of CLIP+ B cells from total spleen (peptide titration)” value (B6.129 (H-2b) mice [5]; 0.25, 2.5, 25, and 50 micrograms of peptide per mouse) was “reversed the effecs of CpG-ODN activation”, the “CD4+ FoxP3+ Tregs in the lymph nodes” value (B6.129 (H-2b) mice [5]; CpG-ODN injection in vivo, without or with peptide) was “reversible” and the “effect of CpG-ODN on total cell numbers, absolute numbers of B cells, and CLIP+ B cell distribution between spleen and lymph node” value (B6.129 (H-2b) mice [5]; CpG-ODN with peptide, 24, 72, 96 hours) was “reduced”. For the same molecule, the “CD8+ T cells” value (B6.129 (H-2b) mice [5]; CpG-ODN with peptide, interpretation in discussion) was “promotes expansion”, the B cell death (B6.129 (H-2b) mice [5]; [6]) was “increased B cell death” and the “number of live CD4+ T cells” value (B6.129 (H-2b) mice [5]; [6]) was “moderate increase”.
